# Values quoted from earlier work in US7915270B2, “Oxazole ketones as modulators of fatty acid amide hydrolase” (The Scripps Research Institute, priority 2006, dated 2011).
# Assays:
# [1] = system: anxiety; conditions: rats; Kathuria 2003; cited from earlier work
# [2] = system: thermal nociception; conditions: rat; Kathuria 2003; cited from earlier work
# [3] = rat; Kathuria 2003; cited from earlier work
# [4] = system: spasticity; conditions: Baker 2001; cited from earlier work
Compound,efficacy in the zero plus maze model of anxiety [1],analgesic efficacy in the hot plate test [2],analgesic efficacy in the formalin test [3],spasticity in CREAE mice [4]
NC(=O)c1cccc(-c2cccc(OC(=O)NC3CCCCC3)c2)c1 [URB-597],efficacy,analgesic efficacy,analgesic efficacy,
CCCCCCCCCCCCCCCCS(=O)(=O)F [AM374],,,,significantly reduce spasticity
